The values that follow come from ChEMBL document CHEMBL1138859, “Synthesis and Src kinase inhibitory activity of a series of 4-[(2,4-dichloro-5-methoxyphenyl)amino]-7-furyl-3-quinolinecarbonitriles” (J Med Chem, 2006).

Values after ≈ are worked out from the molar mass of the structure shown.

Data set [1] has as its target Vascular endothelial growth factor receptor 2 (Homo sapiens, UniProt P35968). Nature of the data set: Inhibition of KDR.
Data set [2] concerns the target T1, 3-phosphoinositide-dependent protein kinase 1 (Homo sapiens, UniProt O15530).
T1 sequence (O15530 whole entry): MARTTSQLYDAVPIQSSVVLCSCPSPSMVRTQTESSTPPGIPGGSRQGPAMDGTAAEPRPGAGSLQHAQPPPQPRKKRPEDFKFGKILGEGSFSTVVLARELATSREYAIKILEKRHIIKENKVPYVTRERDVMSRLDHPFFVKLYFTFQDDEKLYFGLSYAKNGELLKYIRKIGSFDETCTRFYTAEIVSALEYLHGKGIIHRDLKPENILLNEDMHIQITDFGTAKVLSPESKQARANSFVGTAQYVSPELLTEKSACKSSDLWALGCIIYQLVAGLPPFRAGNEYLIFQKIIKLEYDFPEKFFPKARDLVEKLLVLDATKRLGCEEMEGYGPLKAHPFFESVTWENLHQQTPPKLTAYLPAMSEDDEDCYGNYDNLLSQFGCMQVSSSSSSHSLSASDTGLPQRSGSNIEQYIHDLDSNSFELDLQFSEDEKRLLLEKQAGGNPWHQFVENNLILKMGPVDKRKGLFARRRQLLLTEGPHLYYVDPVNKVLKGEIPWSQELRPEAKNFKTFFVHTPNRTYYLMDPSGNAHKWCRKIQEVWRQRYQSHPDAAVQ
Description: Inhibitory activity against PDK1.

In data set [3] the target is Epidermal growth factor receptor (Homo sapiens, UniProt P00533). Description: Inhibitory activity against EGFR.
Data set [4] is described as follows: Permeability by PAMPA assay. The format is ADME. Conditions: read-out: permeability.
Data set [5] can be described thus: Solubility at pH 4.5. The format is physicochemical. The following applies: buffer.
Data set [6] is described as follows: Stability in rat liver microsomes after 30 min. The format is ADME, Microsome. The following applies: read-out: Stability. (Liver microsomes are vesicles of endoplasmic reticulum, rich in cytochrome P450 enzymes.)
Data set [7] is described as follows: Stability in nude mouse liver microsomes. The format is ADME, Microsome.
Data set [8] in a line: Plasma concentration in nude mouse after 4 hrs at 50 mg/kg, po. The format is ADME, organism-based. Also noted: dose 50 mg/kg, route oral.
The nature of data set [9]: Plasma concentration in nude mouse after 8 hrs at 50 mg/kg, po. The format is ADME, organism-based. Also on record: dose 50 mg/kg, route oral.
The nature of data set [10]: Plasma concentration in nude mouse after 24 hrs at 50 mg/kg, po. The format is ADME, organism-based. Also noted: dose 50 mg/kg, route oral.
A further data set relates to HT-29. Description: Antitumor activity against HT29 cells xenografted in nude mouse after 21 days at 150 mg/kg, po. The format is functional, Homo sapiens.
For data set [11], the target named is Proto-oncogene tyrosine-protein kinase Src (Homo sapiens, UniProt P12931). Description: Inhibition of Src.
In data set [12] the target is Cyclin-dependent kinase 4 (Homo sapiens, UniProt P11802). Nature of the data set: Inhibition of CDK4.
Data set [13] deals with RAC-alpha serine/threonine-protein kinase (Homo sapiens, UniProt P31749). Description: Inhibition of AKT.
The test system of a further data set is Mus musculus. Description: Toxicity in nude mouse at 150 mg/kg, po. The format is organism-based. Also noted: dose 150 mg/kg, route oral. The following applies: in vivo.

Epidermal growth factor receptor, sequence (P00533 whole entry): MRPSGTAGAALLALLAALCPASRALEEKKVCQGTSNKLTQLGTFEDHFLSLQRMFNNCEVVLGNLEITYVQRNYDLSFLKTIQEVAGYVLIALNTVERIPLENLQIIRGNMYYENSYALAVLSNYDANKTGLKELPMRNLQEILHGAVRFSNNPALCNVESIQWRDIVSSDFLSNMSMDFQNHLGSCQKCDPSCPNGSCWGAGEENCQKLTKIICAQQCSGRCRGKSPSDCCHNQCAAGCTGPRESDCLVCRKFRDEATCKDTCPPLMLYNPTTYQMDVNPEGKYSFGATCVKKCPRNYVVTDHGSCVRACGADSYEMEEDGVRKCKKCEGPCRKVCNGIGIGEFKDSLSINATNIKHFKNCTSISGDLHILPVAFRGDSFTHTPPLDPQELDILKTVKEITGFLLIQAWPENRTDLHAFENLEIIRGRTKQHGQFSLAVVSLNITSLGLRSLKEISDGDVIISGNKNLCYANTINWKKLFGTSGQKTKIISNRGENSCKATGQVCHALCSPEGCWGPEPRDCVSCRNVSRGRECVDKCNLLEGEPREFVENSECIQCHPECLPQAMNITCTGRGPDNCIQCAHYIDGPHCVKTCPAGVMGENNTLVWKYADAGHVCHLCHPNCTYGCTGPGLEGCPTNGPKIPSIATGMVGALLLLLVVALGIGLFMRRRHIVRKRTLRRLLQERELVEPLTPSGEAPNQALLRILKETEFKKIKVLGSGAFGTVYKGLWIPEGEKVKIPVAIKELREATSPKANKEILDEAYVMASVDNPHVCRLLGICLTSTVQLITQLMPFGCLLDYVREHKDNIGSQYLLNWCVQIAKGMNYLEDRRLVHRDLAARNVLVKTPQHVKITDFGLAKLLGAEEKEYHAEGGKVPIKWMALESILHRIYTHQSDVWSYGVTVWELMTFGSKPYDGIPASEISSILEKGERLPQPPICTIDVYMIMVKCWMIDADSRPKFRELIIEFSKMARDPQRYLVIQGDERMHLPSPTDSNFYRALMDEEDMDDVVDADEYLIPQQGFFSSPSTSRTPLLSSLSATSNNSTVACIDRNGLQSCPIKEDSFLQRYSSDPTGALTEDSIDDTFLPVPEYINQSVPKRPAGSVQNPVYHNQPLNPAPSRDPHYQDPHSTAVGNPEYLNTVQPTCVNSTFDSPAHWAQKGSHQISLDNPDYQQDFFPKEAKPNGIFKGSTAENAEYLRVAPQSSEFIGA
Vascular endothelial growth factor receptor 2, sequence (P35968 whole entry): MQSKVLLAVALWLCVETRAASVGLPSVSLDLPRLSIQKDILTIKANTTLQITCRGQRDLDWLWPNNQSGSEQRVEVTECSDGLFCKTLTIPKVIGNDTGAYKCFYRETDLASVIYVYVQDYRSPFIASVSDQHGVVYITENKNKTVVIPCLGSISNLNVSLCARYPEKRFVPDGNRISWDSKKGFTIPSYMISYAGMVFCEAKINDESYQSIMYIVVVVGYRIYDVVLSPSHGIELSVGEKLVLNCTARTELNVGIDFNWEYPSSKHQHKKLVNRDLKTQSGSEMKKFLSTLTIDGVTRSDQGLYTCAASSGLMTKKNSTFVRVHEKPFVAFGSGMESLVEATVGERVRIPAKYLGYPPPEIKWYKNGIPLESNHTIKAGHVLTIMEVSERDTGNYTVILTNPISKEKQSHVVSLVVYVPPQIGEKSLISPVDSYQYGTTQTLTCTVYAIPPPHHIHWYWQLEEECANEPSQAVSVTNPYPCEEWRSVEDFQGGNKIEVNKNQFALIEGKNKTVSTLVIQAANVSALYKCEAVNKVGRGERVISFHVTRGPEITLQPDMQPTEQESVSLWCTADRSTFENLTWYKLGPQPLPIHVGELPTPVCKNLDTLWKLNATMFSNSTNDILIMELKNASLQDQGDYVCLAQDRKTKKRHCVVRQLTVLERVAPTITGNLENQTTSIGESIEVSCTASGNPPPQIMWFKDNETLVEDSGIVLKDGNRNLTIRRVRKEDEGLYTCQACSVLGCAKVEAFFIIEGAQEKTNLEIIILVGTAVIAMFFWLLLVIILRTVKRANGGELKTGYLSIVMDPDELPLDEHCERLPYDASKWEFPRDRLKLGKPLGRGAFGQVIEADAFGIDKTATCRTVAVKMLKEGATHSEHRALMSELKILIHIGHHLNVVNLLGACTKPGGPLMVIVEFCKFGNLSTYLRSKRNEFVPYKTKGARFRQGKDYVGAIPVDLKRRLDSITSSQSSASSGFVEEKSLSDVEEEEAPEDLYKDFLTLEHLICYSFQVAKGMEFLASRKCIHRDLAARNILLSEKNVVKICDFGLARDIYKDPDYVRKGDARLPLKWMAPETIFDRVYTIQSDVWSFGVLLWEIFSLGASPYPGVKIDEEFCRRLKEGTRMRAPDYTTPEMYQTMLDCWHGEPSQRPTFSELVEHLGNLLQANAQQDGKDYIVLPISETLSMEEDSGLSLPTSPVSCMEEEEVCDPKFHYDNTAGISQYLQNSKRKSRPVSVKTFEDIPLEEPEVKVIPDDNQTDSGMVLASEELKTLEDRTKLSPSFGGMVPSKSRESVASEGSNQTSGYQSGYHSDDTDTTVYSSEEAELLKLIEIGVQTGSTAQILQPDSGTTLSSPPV
Cyclin-dependent kinase 4, sequence (P11802 whole entry): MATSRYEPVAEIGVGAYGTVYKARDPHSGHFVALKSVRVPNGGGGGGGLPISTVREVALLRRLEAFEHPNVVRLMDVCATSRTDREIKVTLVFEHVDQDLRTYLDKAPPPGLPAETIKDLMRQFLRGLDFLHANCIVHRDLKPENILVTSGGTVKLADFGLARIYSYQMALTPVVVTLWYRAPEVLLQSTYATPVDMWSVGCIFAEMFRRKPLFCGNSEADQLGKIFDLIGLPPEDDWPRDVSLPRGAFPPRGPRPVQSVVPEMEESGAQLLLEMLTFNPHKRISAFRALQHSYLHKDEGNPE
Proto-oncogene tyrosine-protein kinase Src, sequence (P12931 2-536 limits assumed): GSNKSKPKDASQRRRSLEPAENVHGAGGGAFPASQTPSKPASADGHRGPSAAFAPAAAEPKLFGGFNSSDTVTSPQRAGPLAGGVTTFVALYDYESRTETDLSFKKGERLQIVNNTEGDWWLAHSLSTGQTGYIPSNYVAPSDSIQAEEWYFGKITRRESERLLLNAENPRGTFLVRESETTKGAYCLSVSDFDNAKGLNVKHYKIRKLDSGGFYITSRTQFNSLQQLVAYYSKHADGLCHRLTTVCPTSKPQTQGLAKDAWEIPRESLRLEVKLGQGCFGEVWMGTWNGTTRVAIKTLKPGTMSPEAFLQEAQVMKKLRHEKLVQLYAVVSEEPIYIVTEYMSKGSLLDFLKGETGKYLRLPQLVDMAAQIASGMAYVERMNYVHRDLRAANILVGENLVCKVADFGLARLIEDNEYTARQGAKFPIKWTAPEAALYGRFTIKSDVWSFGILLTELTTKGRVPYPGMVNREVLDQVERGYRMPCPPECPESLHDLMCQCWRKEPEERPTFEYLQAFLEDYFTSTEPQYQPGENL
RAC-alpha serine/threonine-protein kinase, sequence (P31749 whole entry): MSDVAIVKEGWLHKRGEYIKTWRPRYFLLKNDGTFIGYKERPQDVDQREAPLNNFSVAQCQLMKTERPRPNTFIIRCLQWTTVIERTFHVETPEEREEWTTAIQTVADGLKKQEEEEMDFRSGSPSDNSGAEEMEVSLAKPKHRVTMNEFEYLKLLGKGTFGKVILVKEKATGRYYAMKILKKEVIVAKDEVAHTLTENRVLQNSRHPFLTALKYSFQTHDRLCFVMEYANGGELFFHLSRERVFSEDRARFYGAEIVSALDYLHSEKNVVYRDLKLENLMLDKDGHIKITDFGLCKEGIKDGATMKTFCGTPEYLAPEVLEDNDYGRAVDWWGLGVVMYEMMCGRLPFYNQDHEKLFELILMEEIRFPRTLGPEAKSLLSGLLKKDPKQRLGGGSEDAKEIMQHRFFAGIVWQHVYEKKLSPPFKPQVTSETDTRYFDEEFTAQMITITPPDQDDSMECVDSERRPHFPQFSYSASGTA

As usually defined, the IC50 is the concentration at which inhibition is half-maximal. The low end stands for greater potency, the high end for weaker potency. The solubility is the concentration that dissolves in the medium under given conditions. A lower solubility goes with little dissolved substance. Usually half-life stands for how long it takes for the measured level to halve. Low values mean rapid decline, high ones slow decline. Turning to `COc1cc(Nc2c(C#N)cnc3cc(-c4coc(CN5CCN(C)CC5)c4)c(OC)cc23)c(Cl)cc1Cl`, the IC50 was more than 1000 nM in data set [1]; more than 1000 nM in data set [2]; 230 nM in [3]; 0.78 nM in data set [11]; more than 1000 nM in data set [12]; more than 1000 nM in data set [13]. The Papp in [4] was determined as 2 ×10⁻⁶ cm/s. In addition, the solubility in data set [5] was 63 µg/mL (≈ 114 µM). Also, the remaining at 0.5 h in data set [6] stood at 72%. This molecule also yielded a half-life in data set [7] of 32 min. The concentration at 4 h in [8] amounted to 1140 ng/mL. In data set [9], this molecule came in with a concentration at 8 h of 1030 ng/mL. For the same molecule, the concentration at 24 h in [10] was 103 ng/mL. The values for the Activity with HT-29 and in the data set with Mus musculus were 38% and “Non-toxic”, respectively.
